# Laboratory results from patent publication US11427615B2, “Peptide compound and application thereof, and composition containing peptide compound” (XDCEXPLORER (SHANGHAI) CO., LTD., priority 2017, dated 2022).
# “And” between values parts separate entries of the source, which are not always exact repeats. Identical values can stand only once. Starred links: 1 amine or outer side, 2 acyl side, 3 side chain; linkers in the order of their positions; H or OH if unused. Non-standard residues stand in square brackets, D forms with d. Residues, ends and D or L forms follow the SMILES beside them. *: point of attachment. X10 = CNC(=N)NCCC[C@H](NC(=O)[C@H](CC(C)C)NC(=O)NCN*)C(=O)N[C@@H](Cc1c[nH]c2ccccc12)C(N)=O; X6 = O=C([C@H](Cc1ccc(-n2cccn2)cc1)N[*:1])[*:2]; dPhe(2,4-Cl2) = N[C@H](Cc1ccc(Cl)cc1Cl)C(=O)O; Dnp = O=[N+]([O-])c1ccc(*)c([N+](=O)[O-])c1; X7 = c1ccc2c(C[C@H](N*)c3nn[nH]n3)c[nH]c2c1; PEG8 = NCCOCCOCCOCCOCCOCCOCCOCCOCCC(=O)O; dPhe(4-F) = N[C@H](Cc1ccc(F)cc1)C(=O)O; Arg(Me) = CNC(=N)NCCC[C@H](N)C(=O)O; Palmitoyl = CCCCCCCCCCCCCCCC(=O)*; Hyp = O=C(O)[C@@H]1C[C@@H](O)CN1; azaPro = O=C(N1CCCN1[*:1])[*:2]; NMeL = CN[C@@H](CC(C)C)C(=O)O; X15 = CN(NC(=O)[*:2])[*:1]; Pip = O=C(O)[C@@H]1CCCCN1; Ac6c = NC1(C(=O)O)CCCCC1; Aze = O=C(O)[C@@H]1CCN1; Dap = NC[C@H](N)C(=O)O; azaGly = NNC(=O)O; βAla = NCCC(=O)O
# Molecular target: T1, human kiss1 receptor (GPR54) (Homo sapiens, UniProt Q969F8)
# T1 construct: host or cells: NFAT-bla CHO-K1 cells (Chinese hamster ovary), purchased recombinant cell line
# Experiment: Kiss1 receptor (GPR54) binding activity of agonists, FRET detection in NFAT-bla CHO-K1 cells
# Type: cell-based
# Settings: GPR54; measured according to the method of effect Embodiment 1; preliminary data; read-out: Preliminary measurement data (GPR54) EC50
# T1 sequence (Q969F8 whole entry): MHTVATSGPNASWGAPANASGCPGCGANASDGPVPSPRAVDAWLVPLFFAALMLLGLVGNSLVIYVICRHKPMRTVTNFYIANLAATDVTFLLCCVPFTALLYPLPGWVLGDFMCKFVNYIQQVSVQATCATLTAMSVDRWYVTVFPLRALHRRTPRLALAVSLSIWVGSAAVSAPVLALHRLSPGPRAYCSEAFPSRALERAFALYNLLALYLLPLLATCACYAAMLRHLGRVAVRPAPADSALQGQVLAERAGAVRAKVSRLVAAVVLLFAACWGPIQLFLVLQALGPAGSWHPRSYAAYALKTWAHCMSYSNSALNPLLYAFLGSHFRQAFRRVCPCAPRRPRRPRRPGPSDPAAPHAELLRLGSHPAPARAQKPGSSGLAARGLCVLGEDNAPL
row,EC50,SMILES
1,0.038 nM,"CCCCCCCCCCCCCCCC(=O)NCCOCCOCCOCCOCCOCCOCCOCCOCCC(=O)NCC(=O)NCC(=O)N[C@H](Cc1ccc(O)cc1)C(=O)N1C[C@H](O)C[C@H]1C(=O)N[C@@H](CC(N)=O)C(=O)N[C@H](C(=O)N[C@@H](Cc1ccccc1)C(=O)N1CC[C@H]1C(=O)N[C@@H](CC(C)C)C(=O)N[C@@H](CCCNC(=N)NC)C(=O)N[C@@H](Cc1c[nH]c2ccccc12)C(N)=O)[C@@H](C)O [YA-287, Palm-PEG 8-Gly-Gly-D-Tyr-Hyp-Asn-Thr-Phe-Aze-Leu-Arg(Me)-Trp-NH2] ({Palmitoyl-PEG8}-GG[dY][Hyp]NTF[Aze]L[Arg(Me)]W-NH2)"
2,48 nM,"CNC(=N)NCCC[C@H](NC(=O)[C@H](CC(C)C)NC(=O)N1CCCN1C(=O)[C@H](Cc1ccccc1)NC(=O)[C@@H](NC(=O)[C@H](CC(N)=O)NC(=O)[C@@H]1C[C@@H](O)CN1C(=O)[C@@H](Cc1ccc(Cl)cc1Cl)NC(C)=O)[C@@H](C)O)C(=O)N[C@@H](Cc1c[nH]c2ccccc12)C(N)=O [YA-184, Ac-[D-Phe(2,4-DiCl)]-Hyp-Asn-Thr-Phe-azaPro-Leu-Arg(Me)-Trp-NH2] (Ac-[dPhe(2,4-Cl2)][Hyp]NTF[azaPro]L[Arg(Me)]W-NH2)"
3,3.63 nM,"CNC(=N)NCCC[C@H](NC(=O)[C@H](CC(C)C)N(C)C(=O)CCNC(=O)[C@H](Cc1ccccc1)NC(=O)[C@@H](NC(=O)[C@H](CC(N)=O)NC(=O)[C@@H]1CCCCN1C(=O)[C@@H](Cc1ccc(Cl)cc1Cl)NC(C)=O)[C@@H](C)O)C(=O)N[C@@H](Cc1c[nH]c2ccccc12)C(N)=O [YA-185, Ac-[D-Phe(2,4-DiCl)]-(S-Pip)-Asn-Thr-Phe-BetaAla-NMeLeu-Arg(Me)-Trp-NH2] (Ac-[dPhe(2,4-Cl2)][Pip]NTF[βAla][NMeL][Arg(Me)]W-NH2)"

# Same assay, conditions: NFAT-bla CHO-K1 cells that express human kiss1 receptor (GPR54); FRET; cells cultured with compound for 4 hours; read-out: GPR54 EC50/nM
row,EC50,SMILES
1,3.75 nM,"CC(=O)N[C@H](Cc1ccc(Cl)cc1Cl)C(=O)N1CCCC[C@H]1C(=O)N[C@@H](CC(N)=O)C(=O)N[C@H](C(=O)N[C@@H](Cc1ccccc1)C(=O)NNC(=O)N[C@@H](CC(C)C)C(=O)N[C@@H](Cc1ccc(-n2cccn2)cc1)C(=O)N[C@@H](Cc1c[nH]c2ccccc12)C(N)=O)[C@@H](C)O [YA-242, Ac-[D-Phe(2,4-diCl)]—(S-Pip)-Asn-Thr-Phe-azaGly-Leu-Phe(4-Pyrazol)-Trp-NH2] (Ac-[dPhe(2,4-Cl2)][Pip]NTF[azaGly]L[X6]W-NH2)"

# Same assay, conditions: Preliminary measurement data (GPR54) EC50, nM), GPR54; measured according to the method of effect Embodiment 1; preliminary data
row,SMILES,EC50
1,"CNC(=N)NCCC[C@H](NC(=O)[C@H](CC(C)C)NC(=O)NNC(=O)[C@H](Cc1ccccc1)NC(=O)[C@@H](NC(=O)[C@H](CC(N)=O)NC(=O)[C@@H]1C[C@@H](O)CN1C(=O)[C@H](CNc1ccc([N+](=O)[O-])cc1[N+](=O)[O-])NC(C)=O)[C@@H](C)O)C(=O)N[C@@H](Cc1c[nH]c2ccccc12)C(N)=O [YA-41, Ac-Dap(Dnp)-Hyp-Asn-Thr-Phe-azaGly-Leu-Arg(Me)-Trp-NH2] (Ac-[Dap](Dnp)[Hyp]NTF[azaGly]L[Arg(Me)]W-NH2)",0.095 nM

# Same assay, conditions: human kiss1 receptor (GPR54), NFAT-bla CHO-K1 cells, FRET; preliminary data; method of effect Embodiment 1; read-out: Preliminary measurement data (GPR54) EC50
row,SMILES,EC50
1,"CNC(=N)NCCC[C@H](NC(=O)[C@H](CC(C)C)NC(=O)NNC(=O)[C@H](Cc1ccccc1)NC(=O)[C@@H](NC(=O)[C@H](CC(N)=O)NC(=O)[C@@H]1C[C@@H](O)CN1C(=O)[C@@H](Cc1ccc(O)cc1)NC(C)=O)[C@@H](C)O)C(=O)N[C@@H](Cc1c[nH]c2ccccc12)c1nn[nH]n1 [YA-250, Ac-(D-Tyr)-Hyp-Asn-Thr-Phe-azaG-Leu-Arg(Me)-Trp-2H-tetrazol-5-yl] (Ac-[dY][Hyp]NTF[azaGly]L[Arg(Me)]-X7)",7.5 nM and 15.4 nM
2,"CNC(=N)NCCC[C@H](NC(=O)[C@H](CC(C)C)NC(=O)C1(NC(=O)[C@H](Cc2ccccc2)NC(=O)[C@@H](NC(=O)[C@H](CC(N)=O)NC(=O)C2(NC(=O)[C@@H](Cc3ccc(F)cc3)NC(C)=O)CCCCC2)[C@@H](C)O)CCCCC1)C(=O)N[C@@H](Cc1c[nH]c2ccccc12)C(N)=O [YA-244, Ac-[D-Phe(4-F)]-A6c-Asn-Thr-Phe-A6c-Leu-Arg(Me)-Trp-NH2] (Ac-[dPhe(4-F)][Ac6c]NTF[Ac6c]L[Arg(Me)]W-NH2; C-terminus assumed)",1.17 nM
3,"CC(=O)N[C@H](Cc1ccc(Cl)cc1Cl)C(=O)N1CCCC[C@H]1C(=O)N[C@@H](CC(N)=O)C(=O)N[C@H](C(=O)N[C@@H](Cc1ccccc1)C(=O)NNC(=O)N[C@@H](CC(C)C)C(=O)N[C@@H](Cc1ccc(-n2cccn2)cc1)C(=O)N[C@@H](Cc1c[nH]c2ccccc12)C(N)=O)[C@@H](C)O [YA-242, Ac-[D-Phe(2,4-diCl)]—(S-Pip)-Asn-Thr-Phe-azaGly-Leu-Phe(4-Pyrazol)-Trp-NH2] (Ac-[dPhe(2,4-Cl2)][Pip]NTF[azaGly]L[X6]W-NH2)",3.74 nM

# More lines, now with the values ahead:
row,EC50,SMILES
1,11 nM,"CNC(=N)NCCC[C@H](NC(=O)[C@H](CC(C)C)NC(=O)NN(C)C(=O)[C@H](Cc1ccccc1)NC(=O)[C@@H](NC(=O)[C@H](CC(N)=O)NC(=O)[C@@H]1C[C@@H](O)CN1C(=O)[C@@H](Cc1ccc(O)cc1)NC(C)=O)[C@@H](C)O)C(=O)N[C@@H](Cc1c[nH]c2ccccc12)C(N)=O [YA-247, Ac-(D-Tyr)-Hyp-Asn-Thr-Phe-azaNMeGly-Leu-Arg(Me)-Trp-NH2] (Ac-[dY][Hyp]NTF[X15]L[Arg(Me)]W-NH2)"
2,2.6 nM,"CNC(=N)NCCC[C@H](NC(=O)[C@H](CC(C)C)NC(=O)NCNC(=O)[C@H](Cc1ccccc1)NC(=O)[C@@H](NC(=O)[C@H](CC(N)=O)NC(=O)[C@@H]1C[C@@H](O)CN1C(=O)[C@@H](Cc1ccc(O)cc1)NC(C)=O)[C@@H](C)O)C(=O)N[C@@H](Cc1c[nH]c2ccccc12)C(N)=O [YA-256, Ac-(D-Tyr)-Hyp-Asn-Thr-Phe-ψ(NH—CO—NH)Gly-Leu-Arg(Me)-Trp-NH2] (Ac-[dY][Hyp]NTF-X10)"
